From patent US20250235427A1, “5-METHOXY-N,N-[…][…] THE TREATMENT OF SOCIAL/EMOTIONAL […] DETACHMENT” (GH RESEARCH IRELAND LIMITED, priority 2022, published 2025)

Assay: Pharmacokinetics after inhalation of 5-MeO-DMT, LC-MS/MS
Assay type: in vivo, human
Conditions: for plasma concentration as % of Cmax: whole dose range 6, 12, 18 mg

COc1ccc2[nH]cc(CCN(C)C)c2c1 [5-MeO-DMT]
plasma concentration as % of Cmax (10 minutes after inhalation): ≤ 10% | plasma concentration as % of Cmax (2 hours after inhalation): ≤ 1% | accumulation upon repeated administration (repeated administration within a time frame of 1 to 4 hours): No accumulation is observed
